Measurements from ChEMBL document CHEMBL1201862, “PubChem BioAssay data set” (2004).
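Following 48 hours of exposure in 96-well plates, responses at five concentrations were used to interpolate endpoints linearly. GI50 marks 50% less growth.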 Active and inactive are the calls of the source. Cut-off read from the data, not from the text of the source: active = GI50 up to about 1.1 µM and inactive = higher.

Assays:
Assay in all cases: DTP human tumour cell line panel, 48 h
SF-539 = test system: SF-539
COLO 205 = test system: COLO 205
EKVX = test system: EKVX
U-251 = test system: U-251
SW-620 = test system: SW-620
KM12 = test system: KM12
SF-268 = test system: SF-268
SK-OV-3 = test system: SK-OV-3
SR = test system: SR
NCI-H226 = test system: NCI-H226
SK-MEL-2 = test system: SK-MEL-2
HT-29 = test system: HT-29
RXF 393 = test system: RXF 393
SF-295 = test system: SF-295
SK-MEL-5 = test system: SK-MEL-5
OVCAR-3 = test system: OVCAR-3
MCF7 = test system: MCF7

Measured: GI50

CC1(n2nc(-c3ccccc3)n(-c3ccccc3)c2=O)CSC1
inactive: SF-539 > 100 µM | COLO 205 > 100 µM | EKVX > 100 µM | U-251 > 100 µM | SW-620 > 100 µM | KM12 > 100 µM | SF-268 > 100 µM | SK-OV-3 > 100 µM | SR > 100 µM | NCI-H226 > 100 µM | SK-MEL-2 > 100 µM | HT-29 > 100 µM | RXF 393 > 100 µM | SF-295 > 100 µM | SK-MEL-5 > 100 µM

Clc1ccc2c(Cl)nc(-c3ccccc3)nc2c1
inactive: OVCAR-3 17.2 µM | COLO 205 41.2 µM | EKVX 11.4 µM | U-251 11.8 µM | SW-620 33.9 µM | KM12 36.8 µM | SF-268 24.9 µM | SK-OV-3 14.1 µM | SR 25.2 µM | NCI-H226 13.2 µM | SK-MEL-2 26.4 µM | HT-29 26.4 µM | RXF 393 23.4 µM | SF-295 25.2 µM | SK-MEL-5 16.5 µM

COc1cc(OC)c(C#N)c(OC)c1C
inactive: SF-539 > 100 µM | EKVX > 100 µM | U-251 > 100 µM | SW-620 > 100 µM | KM12 > 100 µM | SF-268 > 100 µM | SK-OV-3 > 100 µM | SR > 100 µM | NCI-H226 > 100 µM | SK-MEL-2 > 100 µM | HT-29 > 100 µM | RXF 393 > 100 µM | SF-295 > 100 µM | SK-MEL-5 > 100 µM

CN(C)CCC(/C=C/c1ccccc1)=N\Nc1c(F)c(F)c(F)c(F)c1F
inactive: OVCAR-3 > 100 µM | SF-539 > 100 µM | COLO 205 > 100 µM | EKVX > 100 µM | U-251 > 100 µM | SW-620 > 100 µM | KM12 > 100 µM | SF-268 > 100 µM | SK-OV-3 > 100 µM | SR 28.4 µM | SK-MEL-2 41.6 µM | HT-29 27 µM | RXF 393 11.3 µM | SF-295 28.6 µM | SK-MEL-5 15.5 µM

Cc1ccc2c(c1CCCC(C)(C)O)C(=O)C(O)=C(C(C)C)C2=O
inactive: OVCAR-3 66.7 µM | SF-539 > 100 µM | COLO 205 > 100 µM | EKVX 47.2 µM | U-251 53.1 µM | SW-620 > 100 µM | KM12 > 100 µM | SF-268 59.4 µM | SK-OV-3 > 100 µM | SR 41.2 µM | NCI-H226 > 100 µM | SK-MEL-2 36.7 µM | HT-29 > 100 µM | RXF 393 53.5 µM | SF-295 81.7 µM | SK-MEL-5 > 100 µM

COC(=O)C(Cc1nc2ccccc2nc1O)C(=O)C(=O)Nc1ccc(F)cc1 (stereo not given)
inactive: OVCAR-3 40.6 µM | SF-539 37 µM | COLO 205 37.9 µM | EKVX > 100 µM | SW-620 21.9 µM | KM12 41 µM | SF-268 13.1 µM | SK-OV-3 > 100 µM | SR 33 µM | NCI-H226 > 100 µM | SK-MEL-2 34.4 µM | HT-29 42.6 µM | RXF 393 23.4 µM | SF-295 > 100 µM | SK-MEL-5 > 100 µM

COc1ccc(/C=C/C(=N\NC(=O)c2ccccc2)c2sc(Nc3ccc([N+](=O)[O-])cc3)nc2C)cc1OC
inactive: OVCAR-3 23.3 µM | SF-539 21.1 µM | COLO 205 21.3 µM | EKVX 18.6 µM | U-251 5.3 µM | SW-620 16 µM | KM12 7.73 µM | SF-268 13.2 µM | SK-OV-3 45.8 µM | SR 5.18 µM | NCI-H226 18.2 µM | SK-MEL-2 15.9 µM | HT-29 17 µM | RXF 393 12.9 µM | SF-295 11.2 µM

Cc1ccc(C(=O)CC2=Nc3nnc(CCCCCCCc4nnc5n4C(=O)C(CC(=O)c4ccc(C)cc4)=N5)n3C2=O)cc1
inactive: OVCAR-3 > 100 µM | SF-539 > 100 µM | COLO 205 > 100 µM | EKVX > 100 µM | U-251 > 100 µM | SW-620 > 100 µM | KM12 > 100 µM | SF-268 > 100 µM | SK-OV-3 > 100 µM | SR > 100 µM | NCI-H226 > 100 µM | HT-29 > 100 µM | RXF 393 > 100 µM | SF-295 > 100 µM | SK-MEL-5 > 100 µM

C[P+](C)(C)c1ccccc1
inactive: OVCAR-3 > 100 µM | SF-539 > 100 µM | COLO 205 > 100 µM | EKVX > 100 µM | U-251 > 100 µM | SW-620 > 100 µM | KM12 > 100 µM | SF-268 > 100 µM | SK-OV-3 > 100 µM | SR > 100 µM | NCI-H226 > 100 µM | SK-MEL-2 > 100 µM | HT-29 > 100 µM | RXF 393 > 100 µM | SF-295 > 100 µM | SK-MEL-5 > 100 µM

CCOC(OC1=C(C#N)CCCC1)C(CC)[Se]c1ccccc1[N+](=O)[O-] (stereo not given)
inactive: OVCAR-3 26.5 µM | SF-539 20 µM | COLO 205 29.6 µM | EKVX 30.8 µM | U-251 16.6 µM | KM12 21.1 µM | SF-268 23 µM | SK-OV-3 63.8 µM | SR 16.7 µM | NCI-H226 17.7 µM | SK-MEL-2 21 µM | HT-29 16.8 µM | RXF 393 28.8 µM | SF-295 22.2 µM | SK-MEL-5 15.1 µM

CC(C)CCCCCCCCCCCCC(=O)NCC(=O)NC1C(C)OC(Nc2ncnc3c2ncn3C)C(O)C1O (stereo not given)
inactive: OVCAR-3 3.52 µM | SF-539 2.82 µM | COLO 205 3.81 µM | EKVX > 100 µM | U-251 1.21 µM | SW-620 5.37 µM | KM12 5.47 µM | MCF7 > 100 µM | SF-268 3.21 µM | SK-OV-3 3.1 µM | NCI-H226 2.16 µM | SK-MEL-2 8.34 µM | HT-29 4.2 µM | RXF 393 2.89 µM | SF-295 6.4 µM | SK-MEL-5 > 74.3 µM

COc1ccc(/C(Cl)=C(\CN(C)C)c2ccc(OC)c(OC)c2)cc1OC.[B]
inactive: SF-539 4.72 µM | EKVX > 100 µM | U-251 8.61 µM | SW-620 > 100 µM | KM12 > 100 µM | SF-268 > 100 µM | SK-OV-3 14.2 µM | SR > 100 µM | NCI-H226 > 100 µM | HT-29 > 100 µM | RXF 393 15.7 µM | SF-295 12.7 µM | SK-MEL-5 > 100 µM

Cc1cc(O)nc(NNC(C#N)c2cccc(O)c2)n1 (stereo not given)
inactive: OVCAR-3 > 100 µM | SF-539 > 100 µM | COLO 205 > 100 µM | U-251 > 100 µM | SW-620 > 100 µM | KM12 > 100 µM | SF-268 > 100 µM | SK-OV-3 > 100 µM | SR > 100 µM | NCI-H226 > 100 µM | SK-MEL-2 > 100 µM | HT-29 > 100 µM | RXF 393 > 100 µM | SF-295 > 100 µM | SK-MEL-5 > 100 µM
